According to patent US11524048B2, “HMGB1 antagonist treatment of severe sepsis” (THE FEINSTEIN INSTITUTES FOR MEDICAL RESEARCH, priority 2019, dated 2022):
Where “and” joins values, the source holds several entries; their conditions need not be identical. Equal entries are not always repeated. Entries after “also recorded” stand apart in the source; their conditions may differ. Where two headings read alike, the source gives them in different places. Blank lines part the entries; values can stand above or below the molecule they belong to.

What was measured:
rats = test: Single-dose tolerability in rats; type: in vivo; settings: single-dose studies with rats
[1] = up to 6 hours, versus P5779
[2] = test system: DAMP-induced TNF secretion (CIRP, SAA, PEDF, HSP 70, HSP90, H2A), human primary macrophages; test: DAMPs-induced TNF secretion in human macrophages; type: cell-based; settings: 16 hours
[3] = test system: liver ischemia and reperfusion injury; test: Warm liver ischemia and reperfusion (I/R) in mice; type: in vivo, male C57BL/6 mice
STZ-induced diabetes = STZ-induced diabetes in mice; type: in vivo; settings: repetitive K883 500 μg/mouse, vs PBS
Experimental: Mice were administered repetitive administration of […] (500 μg/mouse). […] Repetitive administration of […] was therefore shown to be beneficial in STZ-induced diabetes. […] (*: P<0.05 vs. PBS group. N=6-8 mice per group).

[4] = Pharmacokinetics after intravenous administration to rats (LC-MS)
[5] = test system: CCI-induced neuropathic pain; test: Chronic constriction injury (CCI) of the sciatic nerve neuropathic pain model in rats; type: in vivo, male Wistar rats
Experimental: Twenty-four male Wistar rats were separated into four groups (n=6/group) for treatment as follows [please give details concerning each of the four groups regarding procedure and treatment:
The CCI rats each received surgery. […] Mechanical and thermal sensitivity tests were also performed over time. Hargreaves Thermal Hypersensitivity test was administered to the rats as well as Von Frey mechanical hypersensitivity test.
Rats (male Wistar, 150-180 gm, n=6/group) had CCI surgery. […] Two weeks after surgery, thermal (Hargreaves) or mechanical (von Frey) hypersensitivity was assessed. *: P<0.05 vs. PBS group.
In this experiment, male Wistar rats (n=6/group) had CCI surgery. […] Mechanical allodynia was assessed 5 hours later. N=6-8 rats/group. *: p<0.05) vs. HMGB1 alone. Mechanical and thermal sensitivity tests were also performed over time.

[6] = test system: APAP-induced liver injury; test: APAP-induced liver injury model in mice; type: in vivo, male C57BL/6 mice
[7] = test system: liver ischemia and reperfusion injury; settings: cited from earlier work
[8] = test system: PAMP-induced TNF release (LPS, PGN, AGE, Poly I:C), human macrophages; settings: Yang 2015; cited from earlier work
[9] = test system: APAP-induced liver injury; settings: cited from earlier work
[10] = rat, in vivo
[11] = test system: HMGB1-induced TNF release, human primary macrophages; settings: Yang 2015; cited from earlier work

SMILES: NC(=O)N(CCC(=O)O)NC(=O)[C@H](CO)NC(=O)[C@H](CO)NC(=O)N(N)Cc1ccccc1 [K883]
tolerability (rats): well-tolerated | structural stability in mouse serum [1]: retains structural stability for a longer period of time | TNF secretion induced by other DAMPs [2]: is not inhibited | liver H&E staining: inflammation (neutrophil infiltration) ([3]; K883, 6 hours after reperfusion, vs vehicle control): reduced inflammation | protection against hepatic ischemia/reperfusion injury ([3]; mice): protected mice against hepatic ischemia/reperfusion injury | hyperglycemia (STZ-induced diabetes): delays hyperglycemia | insulitis (STZ-induced diabetes): reduces insulitis | weight gain (STZ-induced diabetes): improves weight gain | AUCss ([4]; IV 1 mg/kg, individual rats, 1 mg/kg): 3776 ng·h/mL and 3808 ng·h/mL and 3751 ng·h/mL | AUCss, Mean ([4]; IV 1 mg/kg, mean of 3 rats): 3778 ng·h/mL | half-life in serum (FIG. 23) ([4]; rat, in vivo): longer half-life in serum | CCI-induced CXCL1 and TNF expression (DRGs) ([5]; DRGs): reduces CCI-induced CXCL1 and TNF expression | CCI-induced thermal and/or mechanical hypersensitivity (neuropathy) ([5]; Hargreaves / von Frey, K883 800 μg/rat IP once a day for 3 days): improved CCI-induced thermal and mechanical hypersensitivity; also recorded: effectively reduces peripheral neuropathy; also recorded: ameliorated both mechanical and thermal hypersensitivity; also recorded: ameliorated the thermal hypersensitivity | CCI-induced CXCL1, TNF and IL-1β expression (spine) ([5]; spine): reduces CCI-induced CXCL1, TNF and IL-1β expression | serum ALT ([6]; 50 ug/mouse, vs vehicle controls): reduced serum ALT | liver necrosis / liver injury (H&E histology) ([6]; APAP 350 mg/kg IP, K883 50 μg/mouse IP at 2 and 7 hours post-APAP, 24 hours): reduces APAP-induced liver injury; also recorded: reduced liver necrosis | mice surviving the toxicity of APAP ([6]; APAP 400 mg/kg, 50 μg/mouse IP once-a-day for 5 days from 2 hours post-APAP, 2 weeks, control group 8): 14 mice out of 15 | percent survival post-APAP ([6]; APAP 400 mg/kg, K883 50 μg/mouse IP once-a-day 5 days, 2 weeks): improved survival outcome; also recorded: significant improvement

half-life in serum (FIG. 23) [10]: undetectable
SMILES: NC(=O)[C@H](CCC(=O)O)NC(=O)[C@H](CO)NC(=O)[C@H](CO)NC(=O)[C@@H](N)Cc1ccccc1 [P5779]
serum levels of ALT and AST / tissue damage ([7]; P5779 500 μg/mouse IP at time of I/R surgery, 6 hours): reduced | liver H&E staining: inflammation (neutrophil infiltration) ([7]; P5779, 6 hours after reperfusion, vs vehicle): reduced inflammation | TNF release in macrophages stimulated by LPS, PGN, Poly I:C, CpG DNA or S100 A12 [8]: not suppress TNF release | liver necrosis / liver injury (H&E histology) ([9]; APAP 350 mg/kg, P5779 50 or 500 μg/mouse IP at 2 and 7 hours, vs scrambled control peptide): reduced APAP-mediated liver injury; also recorded: reduced liver necrosis | percent survival post-APAP ([9]; APAP 400 mg/kg, P5779 500 μg/mouse IP once a day 5 days, 2 weeks, vs scrambled control peptide): increased survival; also recorded: significantly improved | serum ALT ([9]; P5779 500 ugs/mouse, comparative data): significant reductions in ALT | HMGB1-induced TNF release from macrophages [11]: inhibit HMGB1-induced TNF release from macrophages in a concentration-dependent manner
